Counter-ions that a name gives are not always drawn. Starred links: 1 amine or outer side, 2 acyl side, 3 side chain; linkers in the order of their positions; H or OH if unused. Positions of bridges follow the written chain, without caps; N, C: chain ends. Non-standard residues stand in square brackets, D forms with d. Residues, ends and D or L forms follow the SMILES beside them. Chains are numbered I, II in the order given. Actinocin(9to1) = Cc1c2oc3c(C)ccc(C(=O)[*:1])c3nc-2c(C(=O)[*:2])c(N)c1=O; NMeV = CN[C@H](C(=O)O)C(C)C; Sar = CNCC(=O)O
Tested on: HT29 RAMS11 overexpressing cells
Assay: High-throughput viability assay (resazurin), 119 FDA-approved anticancer drugs, RAMS11 overexpressing cells (Clone1, Clone2)
Settings: for Viability Fold Change: 72 h, vs empty vector control
[1] = OE1 (RAMS11 overexpression clone 1), 0.1 uM drug
[2] = OE1 (RAMS11 overexpression clone 1), 1 uM drug
[3] = OE1 (RAMS11 overexpression clone 1), 10 uM drug
[4] = OE2 (RAMS11 overexpression clone 2), 0.1 uM drug
[5] = OE2 (RAMS11 overexpression clone 2), 1 uM drug
[6] = OE2 (RAMS11 overexpression clone 2), 10 uM drug

Experimental: The FDA-approved anticancer panel included multiple classes of drugs such as kinase inhibitors, alkylating agents, antineoplastic antibiotics, anthracycline antibiotics, and antineoplastic agents (topoisomerase inhibitors). The HT29 RAMS11 overexpressing and control cells were treated for 72 h to assess cellular viability upon drug treatment (FIG. 14a and TABLE 3). […] Due to 5-FU commonly used to treat mCRC, we further determined if RAMS11 expression altered drug sensitivity in treated cells.
Drugs were diluted in DMSO to 1 mM and the well assignments were rearranged so drugs were confined to the inner 60 wells of 96-well plates. […] The next day serial diluted drug was added to pre-seeded plates in media containing 1% DMSO vehicle, using a Robbins Hydra 96 micro dispenser. Two 96-well plates of cells were used as vehicle controls. The plates were incubated for 3 days. Percent viability was scored by incubating cells for 3 h with resazurin sodium (0.023 mg/mL, Sigma R7017). The reaction was stopped by the addition of SDS (1% final concentration). Fluorescence Ex/Em 540/590 was read in a Biotek Synergy H1 plate reader (Winooski, VT). The fluorescence values for the vehicle plates were averaged and percent viability was determined by the formula: Percent viability=(average vehicle−value)/(average vehicle−average resazurin in media blank)×100. […] Assays were repeated more than three times.

SMILES	Viability Fold Change [1]	Viability Fold Change [2]	Viability Fold Change [3]	Viability Fold Change [4]	Viability Fold Change [5]	Viability Fold Change [6]	increase in drug resistance in HT29 RAMS11 overexpressing cells (topoisomerase inhibitors, vs empty vector cells)
CNNCc1ccc(C(=O)NC(C)C)cc1 [Procarbazine]	1.003	1.042	0.9825	0.9328	1.046	0.9303	
CC/C(=C(\c1ccccc1)c1ccc(OCCN(C)C)cc1)c1ccccc1 [Tamoxifen Citrate]	1.127	1.144	1.077	1.097	1.08	1.059	
C[C@@H](CN1CC(=O)NC(=O)C1)N1CC(=O)NC(=O)C1 [Dexrazoxane]	0.9553	0.9814	0.8688	0.9411	1.049	1.119	
COc1cc(Nc2c(C#N)cnc3cc(OCCCN4CCN(C)CC4)c(OC)cc23)c(Cl)cc1Cl [Bosutinib]	1.048	1.013	1.477	1.022	1.04	1.608	
O=C(/C=C/c1cccc(S(=O)(=O)Nc2ccccc2)c1)NO [Belinostat]	0.9138	1.209	1.035	1.073	1.192	1.006	
CC[C@@]1(O)C(=O)OCc2c1cc1n(c2=O)Cc2cc3c(CN(C)C)c(O)ccc3nc2-1 [Topotecan HCL]	1.11	2.225	3.389	1.018	2.127	2.763	
Cc1ccc(Nc2nccc(N(C)c3ccc4c(C)n(C)nc4c3)n2)cc1S(N)(=O)=O [Pazopanib hydrochloride]	0.8743	0.7793	0.8633	0.9409	0.9056	0.9152	
Cn1nnc2c(C(N)=O)ncn2c1=O [Temozolomide]	0.9344	0.9467	0.8777	0.8975	1.032	0.9198	
COc1cc([C@@H]2c3cc4c(cc3C(O[C@@H]3O[C@@H]5CO[C@@H](C)O[C@H]5[C@H](O)[C@H]3O)C3COC(=O)[C@@H]32)OCO4)cc(OC)c1O (stereo partly shown) [Etopside]	1.144	1.073	1.161	1.13	0.9992	1.196	
Nc1nc(Cl)nc2c1ncn2[C@@H]1O[C@H](CO)[C@@H](O)[C@@H]1F [Clofarabine]	0.9141	1.361	2.473	1.012	1.421	2.375	
C[C@]12CC[C@@H]3c4ccc(O)cc4C[C@@H](CCCCCCCCC[S+]([O-])CCCC(F)(F)C(F)(F)F)[C@H]3[C@@H]1CC[C@@H]2O (stereo partly shown) [Fulvestrant]	1.048	1.037	1.135	1.088	1.089	1.036	
Nc1cccc2c1C(=O)N(C1CCC(=O)NC1=O)C2=O (stereo not shown) [Pomalidomide]	0.9335	0.9509	0.9014	0.9444	0.9433	0.933	
COc1cccc2c1C(=O)c1c(O)c3c(c(O)c1C2=O)C[C@@](O)(C(C)=O)C[C@@H]3O[C@H]1C[C@H](N)[C@H](O)[C@H](C)O1 [daunorubicin HCl, reference compound]	1.103	2.258	3.761	1.084	2.098	3.726	at least a two-fold increase in drug resistance
Nc1cccc2c1CN(C1CCC(=O)NC1=O)C2=O (stereo not shown) [Lenalidomide]	0.9659	1.021	0.9664	0.9115	1.009	0.8902	
C=C1C[C@@H]2[C@H](CC[C@]3(C)C(=O)CC[C@@H]23)[C@@]2(C)C=CC(=O)C=C12 [Exemestane]	0.8651	0.981	0.9176	1.047	1.008	1.06	
NCC(=O)CCC(=O)O [Aminolevulinic Acid]	0.8803	0.9655	1.022	0.914	1.058	0.9613	
Nc1ncn([C@H]2C[C@H](O)[C@@H](CO)O2)c(=O)n1 [Decitabine]	0.9064	0.9366	0.8624	1.026	1.091	1.168	
CNC(=O)c1ccc(N2C(=S)N(c3ccc(C#N)c(C(F)(F)F)c3)C(=O)C2(C)C)cc1F [Enzalutamide]	1.043	1.081	1.088	1.022	1.152	1.1	
Cc1c2oc3c(C)ccc(C(=O)N[C@@H]4C(=O)N[C@H](C(C)C)C(=O)N5CCC[C@H]5C(=O)N(C)CC(=O)N(C)[C@@H](C(C)C)C(=O)O[C@@H]4C)c3nc-2c(C(=O)N[C@@H]2C(=O)N[C@H](C(C)C)C(=O)N3CCC[C@H]3C(=O)N(C)CC(=O)N(C)[C@@H](C(C)C)C(=O)O[C@@H]2C)c(N)c1=O [Dactinomycin] (I: T[dV]P[Sar][NMeV] / II: T[dV]P[Sar][NMeV]; ester I:1-I:C, II:1-II:C; linker I:N-II:N via Actinocin(9to1))	1.513	1.552	2.719	1.417	1.475	2.498	
CC(C)C[C@H](NC(=O)[C@H](CCc1ccccc1)NC(=O)CN1CCOCC1)C(=O)N[C@@H](Cc1ccccc1)C(=O)N[C@@H](CC(C)C)C(=O)[C@@]1(C)CO1 [Carfilzomib]	3.32	2.1	1.625	2.675	1.654	1.343	
CNC(=O)c1cc(Oc2ccc(NC(=O)Nc3ccc(Cl)c(C(F)(F)F)c3)cc2)ccn1 [Sorafenib]	0.8542	0.8177	1.022	0.8959	0.8971	1.017	
O=C(c1cc(Cc2n[nH]c(=O)c3ccccc23)ccc1F)N1CCN(C(=O)C2CC2)CC1 [Olaparib]	0.8162	0.9061	1	0.9035	0.952	0.9733	

Source: patent publication US12024707B2, “Methods and compositions for modulating lncRNAs and methods of treatment based on lncRNA expression” (Washington University, priority 2020, dated 2024)
